Results: patent US20260055083A1, “APOL1 INHIBITORS AND METHODS OF USE” (Maze Therapeutics, Inc., priority 2022, published 2026)
pEC50: −log10 of the molar value.

Experiments:
[1] = target: T1, APOL1 G2 (Homo sapiens, UniProt O14791, DEL388-389); assay: APOL1 G2 FLIPR calcium influx assay (HEK T-REx/GCaMP6f/APOL1 G2 K6.3 cells); assay type: cell-based; settings: HEK293 clone expressing GCaMP6f, doxycycline-induced APOL1 G2; prevention of calcium influx; geometric mean of at least 2 assay runs
T1 construct: expressed in transfected cells; host or cells: HEK293/T-REx APOL1 G2 clone #2, doxycycline-inducible
T1 sequence (O14791 with tags, fused parts or gaps DEL388-389): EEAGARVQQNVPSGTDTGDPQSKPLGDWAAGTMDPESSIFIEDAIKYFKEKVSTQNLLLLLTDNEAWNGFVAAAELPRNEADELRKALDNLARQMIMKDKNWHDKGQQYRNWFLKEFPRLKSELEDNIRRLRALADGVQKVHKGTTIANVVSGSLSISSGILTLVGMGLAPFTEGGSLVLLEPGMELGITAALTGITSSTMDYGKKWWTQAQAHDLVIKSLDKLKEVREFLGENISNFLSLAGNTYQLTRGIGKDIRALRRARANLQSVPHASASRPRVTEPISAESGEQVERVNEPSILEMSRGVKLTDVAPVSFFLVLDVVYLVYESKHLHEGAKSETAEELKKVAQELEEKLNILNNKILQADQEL
How it was run: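 HEK293 clone stably expressing GCaMP6f, APOL1 G2 induced with doxycycline for 6 h; compounds (duplicate 8-point dose response) preincubated 10 min at room temperature in Ca2+-free Tyrode's buffer, pH 7.4. Ca2+ added to 5 mM final, influx read on FLIPR; AC50 is geometric mean of ≥2 runs.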

[2] = target: T1, APOL1 G2; assay: APOL1 G2 HEK293 rescue of cell death caused by overexpression of APOL1 (CellTiter-Glo); assay type: cell-based; settings: HEK293/T-REx APOL1 G2 clone #2, doxycycline induction, 17 hours, CellTiter-Glo luminescence; reversal of cell death; geometric mean of at least 2 assay runs
How it was run: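 Doxycycline (6 ng/mL)-induced HEK293/T-REx APOL1 G2 clone seeded at 5,000 cells/well with compound in duplicate 8-point 3-fold series (0.5% DMSO), 17 h at 37 °C. CellTiter-Glo luminescence; EC50 from four-parameter logistic fit, geometric mean of ≥2 runs.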

SMILES	AC50 [1]	pEC50 [2]
C[C@@H]1C[C@H](COc2ccc(S(=O)(=O)CCCS(C)(=O)=O)cc2)CN1C1CCc2c(C#N)cc(Cl)cc2C1 (single isomer, unassigned) [Compound 45, (6S or 6R)-3-chloro-6-[(2R,4S)-4-{[4-(3-methanesulfonylpropanesulfonyl)phenoxy]methyl}-2-methylpyrrolidin-1-yl]-5,6,7,8-tetrahydronaphthalene-1-carbonitrile]	998 nM	6.52
C[C@@H]1C[C@H](COc2ccc(S(=O)(=O)CCS(C)(=O)=O)cc2)CN1C1CCc2c(C#N)cc(Cl)cc2C1 (single isomer, unassigned) [Compound 47, (6S or 6R)-3-chloro-6-[(2R,4S)-4-{[4-(2-methanesulfonylethanesulfonyl)phenoxy]methyl}-2-methylpyrrolidin-1-yl]-5,6,7,8-tetrahydronaphthalene-1-carbonitrile]	926 nM	< 5.48
C[C@@H]1C[C@H](COc2ccc(S(=O)(=O)CCS(C)(=O)=O)cc2)CN1C1CCc2c(C#N)cc(Cl)cc2C1 (single isomer, unassigned) [Compound 48, (6R or 6S)-3-chloro-6-[(2R,4S)-4-{[4-(2-methanesulfonylethanesulfonyl)phenoxy]methyl}-2-methylpyrrolidin-1-yl]-5,6,7,8-tetrahydronaphthalene-1-carbonitrile]	1130 nM	6.40
C[C@@H]1C[C@H](COc2ccc(S(=O)(=O)CCS(C)(=O)=O)cc2)CN1C1CCc2ccc(Cl)cc2C1 (single isomer, unassigned) [Compound 50, (2R,4S)-1-[(2S or 2R)-7-chloro-1,2,3,4-tetrahydronaphthalen-2-yl]-4-{[4-(2-methanesulfonylethanesulfonyl)phenoxy]methyl}-2-methylpyrrolidine]	1070 nM	6.46
C[C@@H]1C[C@H](COc2ccc(S(=O)(=O)CCS(C)(=O)=O)cc2)CN1C1CCc2ccc(Cl)cc2C1 (single isomer, unassigned) [Compound 51, (2R,4S)-1-[(2R or 2S)-7-chloro-1,2,3,4-tetrahydronaphthalen-2-yl]-4-{[4-(2-methanesulfonylethanesulfonyl)phenoxy]methyl}-2-methylpyrrolidine]	439 nM	6.89
C[C@@H]1C[C@H](COc2ccc(S(=O)(=O)CCCS(C)(=O)=O)cc2)CN1C1CCc2ccc(Cl)cc2C1 (single isomer, unassigned) [Compound 53, (2R,4S)-1-[(2R or 2S)-7-chloro-1,2,3,4-tetrahydronaphthalen-2-yl]-4-{[4-(3-methanesulfonylpropanesulfonyl)phenoxy]methyl}-2-methylpyrrolidine]	999 nM	6.55
C[C@@H]1C[C@H](COc2ccc(S(=O)(=O)CCCS(C)(=O)=O)cc2)CN1C1CCc2ccc(Cl)cc2C1 (single isomer, unassigned) [Compound 54, (2R,4S)-1-[(2S or 2R)-7-chloro-1,2,3,4-tetrahydronaphthalen-2-yl]-4-{[4-(3-methanesulfonylpropanesulfonyl)phenoxy]methyl}-2-methylpyrrolidine]	857 nM	7.26
C[C@@H]1C[C@H](COc2ccc(S(=O)(=O)CCO)cc2)CN1C1CCc2c(C#N)cc(Cl)cc2C1 (single isomer, unassigned) [Compound 56, (6R or 6S)-3-chloro-6-[(2R,4S)-4-{[4-(2-hydroxyethanesulfonyl)phenoxy]methyl}-2-methylpyrrolidin-1-yl]-5,6,7,8-tetrahydronaphthalene-1-carbonitrile]	714 nM	6.73
C[C@@H]1C[C@H](COc2ccc(S(=O)(=O)CCO)cc2)CN1C1CCc2c(C#N)cc(Cl)cc2C1 (single isomer, unassigned) [Compound 57, (6S or 6R)-3-chloro-6-[(2R,4S)-4-{[4-(2-hydroxyethanesulfonyl)phenoxy]methyl}-2-methylpyrrolidin-1-yl]-5,6,7,8-tetrahydronaphthalene-1-carbonitrile]	802 nM	6.58
C[C@@H]1C[C@H](COc2ccc(S(=O)(=O)CCO)cc2)CN1C1CCc2ccc(C#N)cc2C1 (single isomer, unassigned) [Compound 59, (7R or 7S)-7-[(2R,4S)-4-{[4-(2-hydroxyethanesulfonyl)phenoxy]methyl}-2-methylpyrrolidin-1-yl]-5,6,7,8-tetrahydronaphthalene-2-carbonitrile]	794 nM	6.42
C[C@@H]1C[C@H](COc2ccc(S(=O)(=O)CCO)cc2)CN1C1CCc2ccc(C#N)cc2C1 (single isomer, unassigned) [Compound 60, (7S or 7R)-7-[(2R,4S)-4-{[4-(2-hydroxyethanesulfonyl)phenoxy]methyl}-2-methylpyrrolidin-1-yl]-5,6,7,8-tetrahydronaphthalene-2-carbonitrile]	477 nM	7.43
C[C@@H]1C[C@H](COc2ccc(S(=O)(=O)CCO)cc2)CN1C1CCc2ccc(Cl)cc2C1 (single isomer, unassigned) [Compound 62, 2-(4-{[(3S,5R)-1-[(2R or 2S)-7-chloro-1,2,3,4-tetrahydronaphthalen-2-yl]-5-methylpyrrolidin-3-yl]methoxy}benzenesulfonyl)ethan-1-ol]	462 nM	6.70
C[C@@H]1C[C@H](COc2ccc(S(=O)(=O)CCO)cc2)CN1C1CCc2ccc(Cl)cc2C1 (single isomer, unassigned) [Compound 63, 2-(4-{[(3S,5R)-1-[(2S or 2R)-7-chloro-1,2,3,4-tetrahydronaphthalen-2-yl]-5-methylpyrrolidin-3-yl]methoxy}benzenesulfonyl)ethan-1-ol]	188 nM	7.61
C[C@@H]1CN(CCc2cccc(C#N)c2)C[C@H]1COc1ccc(S(C)(=O)=NCCS(C)(=O)=O)cc1 (single isomer, unassigned) [Compound 69]	346 nM	6.42
C[C@@H]1CN(CCc2cccc(C#N)c2)C[C@H]1COc1ccc(S(C)(=O)=NCCS(C)(=O)=O)cc1 (single isomer, unassigned) [Compound 70]	236 nM	6.47
CN=S(C)(=O)c1ccc(OC[C@@H]2CN(CCc3cccc(C#N)c3)C[C@H]2C)cn1 (single isomer, unassigned) [Compound 72]	183 nM	6.66
CN=S(C)(=O)c1ccc(OC[C@@H]2CN(CCc3cccc(C#N)c3)C[C@H]2C)cn1 (single isomer, unassigned) [Compound 73]	351 nM	6.43
C[C@@H]1C[C@H](COc2ccc(S(C)(=O)=O)nc2)CN1CC(O)c1cccc(C#N)c1 (single isomer, unassigned) [Compound 93, 3-[(1R or 1S)-1-hydroxy-2-[(2R,4S)-4-{[(6-methanesulfonylpyridin-3-yl)oxy]methyl}-2-methylpyrrolidin-1-yl]ethyl]benzonitrile]	1250 nM	5.78
C[C@@H]1C[C@H](COc2ccc(S(C)(=O)=O)nc2)CN1CC(O)c1cccc(C#N)c1 (single isomer, unassigned) [Compound 94, 3-[(1S or 1R)-1-hydroxy-2-[(2R,4S)-4-{[(6-methanesulfonylpyridin-3-yl)oxy]methyl}-2-methylpyrrolidin-1-yl]ethyl]benzonitrile]	614 nM	6.99
